Test results reported in patent US7511063B2, “High affinity quinoline-based kinase ligands” (Schering Corporation, priority 2006, dated 2009).
pIC50: −log10 of the molar value.

biological target: CDK-2 (Homo sapiens, UniProt P24941); test: Fluorescence polarization displacement assay (inhibitory effectiveness toward CDK-2); assay type: binding; conditions: IC50
Experimental: Fluorescence Polarization Assay
Binding assays were performed in a 384 well Costar NBS coated plate. […] The concentration of BMS-Alexa Fluor647 was 50 nM. Serial dilutions of compounds were added to 12 wells. The final buffer concentration was 10 mM Hepes, pH 7.5, 150 mM NaCl, and 1 mM DTT. Samples were incubated at room temperature for 15 minutes and then read in an Analyst HT instrument using an excitation and emission wavelength of 580 and 680 nm, respectively.

| Structure (SMILES) | pIC50 |
| --- | --- |
| COC(=O)[C@H](Cc1ccc(OC)cc1)NC(=O)c1cc(C(=O)O)c2cc(-c3cccc(C(F)(F)F)c3)ccc2n1 [Compound 162] | < 4.40 |
| COC[C@H](Cc1ccc(O)cc1)NC(=O)c1cc(C(=O)O)c2cc(/C=C/c3ccc(Cl)cc3)ccc2n1 [Compound 16] | > 6.00 |
| CCCCCCc1ccc2nc(C(=O)N[C@@H](Cc3ccc(O)cc3)C(=O)OC)cc(C(=O)O)c2c1 [Compound 4] | > 6.00 |
| COC(=O)[C@H](Cc1ccc(O)cc1)NC(=O)c1cc(C(=O)O)c2cc(-c3ccccc3)ccc2n1 [Compound 73] | > 6.00 |
| COC(=O)[C@H](Cc1ccc(O)cc1)NC(=O)c1cc(C(=O)O)c2cc(CCc3ccc(Cl)cc3)ccc2n1 [Compound 9] | > 6.00 |
| COC(=O)[C@H](Cc1ccc(F)cc1)NC(=O)c1cc(C(=O)O)c2cc(-c3cccc(C(F)(F)F)c3)ccc2n1 [Compound 109] | 4.40 to 6.00 |
| COC(=O)[C@H](Cc1cccc(O)c1)NC(=O)c1cc(C(=O)O)c2cc(-c3cccc(C(F)(F)F)c3)ccc2n1 [Compound 163] | < 4.40 |
| COC(=O)[C@@H](Cc1ccc(O)cc1)NC(=O)c1cc(C(=O)O)c2cc(-c3cccc(C(F)(F)F)c3)ccc2n1 [Compound 169] | < 4.40 |

same assay, conditions: inhibitory effectiveness toward CDK-2; read-out: IC50

| Structure (SMILES) | pIC50 |
| --- | --- |
| Cc1cnc([C@H](Cc2ccc(O)cc2)NCc2cc(C(=O)O)c3cc(-c4cccc(C(F)(F)F)c4)ccc3n2)o1 [Compound 45] | > 6.00 |
| COC[C@H](Cc1ccc(O)cc1)NC(=O)c1cc(C(=O)O)c2cc(-c3cccc(C(F)(F)F)c3)ccc2n1 [Compound 13] | > 6.00 |
| COC(=O)[C@H](Cc1ccc(O)cc1)NC(=O)c1cc(C(=O)O)c2cc(-c3ccsc3)ccc2n1 [Compound 90] | 4.40 to 6.00 |
| COC[C@H](Cc1ccc(O)cc1)NCc1cc(C(=O)OCCN(C)C)c2cc(-c3cccc(C(F)(F)F)c3)ccc2n1 [Compound 175] | < 4.40 |
| COC[C@H](Cc1ccc(O)cc1)NC(=O)c1cc(C(=O)O)c2cc(-c3cccc(CN4CC[C@@H](O)C4)c3)ccc2n1 [Compound 192] | < 4.40 |
| CCCCC/C=C/c1ccc2nc(C(=O)N[C@H](COC)Cc3ccc(O)cc3)cc(C(=O)O)c2c1 [Compound 21] | > 6.00 |
| COC(=O)[C@H](Cc1ccc(O)cc1)NC(=O)c1cc(C(=O)O)c2cc(-c3cccc(O)c3)ccc2n1 [Compound 120] | 4.40 to 6.00 |
| COC(=O)[C@H](Cc1ccc(O)cc1)NC(=O)c1cc(C(=O)O)c2cc(-c3cc(Cl)cc(Cl)c3)ccc2n1 [Compound 39] | > 6.00 |
| COC[C@H](Cc1ccc(O)cc1)NC(=O)c1cc(C(=O)O)c2cc(COc3ccc(Cl)cc3)ccc2n1 [Compound 199] | < 4.40 |
| COC[C@H](Cc1ccc(O)cc1)NC(=O)c1cc(C(=O)O)c2cc(OCc3ccc(C(F)(F)F)cc3)ccc2n1 [Compound 55] | > 6.00 |
| COC(=O)[C@H](Cc1ccccc1)NC(=O)c1cc(C(=O)O)c2cc(-c3cccs3)ccc2n1 [Compound 155] | < 4.40 |
| COC[C@H](Cc1ccc(O)cc1)NC(=O)c1cc(C(=O)O)c2cc(CCCCO)ccc2n1 [Compound 189] | < 4.40 |
| CCCCCCCc1ccc2nc(C(=O)N[C@H](COC)Cc3ccc(O)cc3)cc(C(=O)O)c2c1 [Compound 20] | > 6.00 |
| COC[C@H](Cc1ccc(O)cc1)NCc1cc(C(=O)OCC(O)CO)c2cc(-c3cccc(C(F)(F)F)c3)ccc2n1 (stereo partly drawn) [Compound 174] | < 4.40 |
| O=C(N[C@@H](Cc1ccc(O)cc1)c1nnn[nH]1)c1cc(C(=O)O)c2cc(-c3cccc(C(F)(F)F)c3)ccc2n1 [Compound 170] | < 4.40 |
| CO/N=C\[C@H](Cc1ccc(O)cc1)NC(=O)c1cc(C(=O)O)c2cc(-c3cccc(C(F)(F)F)c3)ccc2n1 [Compound 59] | > 6.00 |
| CCCCCC#Cc1ccc2nc(C(=O)N[C@H](COC)Cc3ccc(O)cc3)cc(C(=O)O)c2c1 [Compound 19] | > 6.00 |
| COC(=O)[C@H](Cc1ccc(O)cc1)NC(=O)c1cc(C(=O)O)c2cc(/C=C/c3ccc(Cl)cc3)ccc2n1 [Compound 7] | > 6.00 |
| COC[C@H](Cc1ccc(O)cc1)NC(=O)c1cc(C(=O)O)c2cc(C#CCCn3cccn3)ccc2n1 [Compound 224] | < 4.40 |
| COC[C@H](Cc1ccc(O)cc1)NCc1cc(C(=O)OC[C@@H](N)C(C)C)c2cc(-c3cccc(C(F)(F)F)c3)ccc2n1 [Compound 176] | < 4.40 |
| COC(=O)[C@H](Cc1ccc(O)cc1)NC(=O)c1cc(C(=O)O)c2cc(-c3ccc(OC(F)(F)F)cc3)ccc2n1 [Compound 3] | > 6.00 |
| CC(C)(C)S(=O)(=O)NCc1cc(C(=O)N[C@H](CN)Cc2ccc(O)cc2)nc2ccc(C#Cc3ccccn3)cc12 [Compound 225] | < 4.40 |
| COC(=O)[C@@H](NC(=O)c1cc(C(=O)O)c2cc(-c3cccc(C(F)(F)F)c3)ccc2n1)c1ccc(O)cc1 [Compound 122] | 4.40 to 6.00 |
| COC[C@H](Cc1ccc(O)cc1)NCc1cc(C(=O)OCCO)c2cc(-c3cccc(C(F)(F)F)c3)ccc2n1 [Compound 173] | < 4.40 |
| COC[C@H](Cc1ccc(O)cc1)NC(=O)c1cc(C(=O)O)c2cc(C#CCCO)ccc2n1 [Compound 186] | < 4.40 |
